Results as given in patent publication US8202881B2, “JAK2 inhibitors and their use for the treatment of myeloproliferative diseases and cancer” (Bristol-Meyers Squibb Company, priority 2009, dated 2012).

Tests used:
SET-2 cells = assay: Cell Proliferation Inhibition Assay (3H-thymidine incorporation); format: cell-based; details: Homo sapiens, 72 h with compound
Protocol: Cell Proliferation Inhibition Assay
Compounds were evaluated for their ability to inhibit cell proliferation, using an assay that measures thymidine incorporation in the DNA of the dividing cell, which is directly correlated with cell numbers. SET-2 cells were plated at 10000 cells/well in 96-well plates and were cultured for 24 h in RPMI-1640 supplemented with 20% fetal bovine serum, before test compounds were added. Compounds were diluted in culture medium such that the final concentration of dimethyl sulfoxide never exceeded 0.1%. Following the addition of compounds, the cells were cultured for an additional 72 h before cell proliferation was determined by measuring DNA synthesis with 3H-thymidine incorporation.

JAK2 = JAK2 (Homo sapiens, UniProt O60674); assay: JAK2 Tyrosine Kinase Assay; format: biochemical; details: for IC50: ATP 30 μM, JAK2 1 nM, 60 min room temperature
Protocol: JAK2 Tyrosine Kinase Assay
The assays were performed in V-bottom 384-well plates. The final assay volume was 30 μL prepared from 15 μL additions of enzyme and substrates (fluoresceinated peptide and ATP) and test compounds in assay buffer (100 mM HEPES pH 7.4, 10 mM MgCl2, 25 mM Beta-Glycerolphosphate, 0.015% Brij35 and 4 mM DTT). The reaction was initiated by the combination of JAK2 with substrates and test compounds. The reaction was incubated at room temperature for 60 min. and terminated by adding 45 μL of 35 mM EDTA to each sample. The reaction mixture was analyzed on the Caliper LabChip 3000 by electrophoretic separation of the fluorescent substrate and phosphorylated product. Inhibition data were calculated by comparison to no enzyme control reactions for 100% inhibition and vehicle-only reactions for 0% inhibition. The final concentration of reagents in the assays is ATP, 30 μM; JAK2 fluorescent peptide, 1.5 μM; JAK2, 1 nM; and DMSO, 1.6%. Dose response curves were generated to determine the concentration required inhibiting 50% of kinase activity (IC50). Compounds were dissolved at 10 mM in dimethylsulfoxide (DMSO) and evaluated at eleven concentrations, each in duplicate. IC50 values were derived by non-linear regression analysis

JAK2, sequence (O60674 whole entry): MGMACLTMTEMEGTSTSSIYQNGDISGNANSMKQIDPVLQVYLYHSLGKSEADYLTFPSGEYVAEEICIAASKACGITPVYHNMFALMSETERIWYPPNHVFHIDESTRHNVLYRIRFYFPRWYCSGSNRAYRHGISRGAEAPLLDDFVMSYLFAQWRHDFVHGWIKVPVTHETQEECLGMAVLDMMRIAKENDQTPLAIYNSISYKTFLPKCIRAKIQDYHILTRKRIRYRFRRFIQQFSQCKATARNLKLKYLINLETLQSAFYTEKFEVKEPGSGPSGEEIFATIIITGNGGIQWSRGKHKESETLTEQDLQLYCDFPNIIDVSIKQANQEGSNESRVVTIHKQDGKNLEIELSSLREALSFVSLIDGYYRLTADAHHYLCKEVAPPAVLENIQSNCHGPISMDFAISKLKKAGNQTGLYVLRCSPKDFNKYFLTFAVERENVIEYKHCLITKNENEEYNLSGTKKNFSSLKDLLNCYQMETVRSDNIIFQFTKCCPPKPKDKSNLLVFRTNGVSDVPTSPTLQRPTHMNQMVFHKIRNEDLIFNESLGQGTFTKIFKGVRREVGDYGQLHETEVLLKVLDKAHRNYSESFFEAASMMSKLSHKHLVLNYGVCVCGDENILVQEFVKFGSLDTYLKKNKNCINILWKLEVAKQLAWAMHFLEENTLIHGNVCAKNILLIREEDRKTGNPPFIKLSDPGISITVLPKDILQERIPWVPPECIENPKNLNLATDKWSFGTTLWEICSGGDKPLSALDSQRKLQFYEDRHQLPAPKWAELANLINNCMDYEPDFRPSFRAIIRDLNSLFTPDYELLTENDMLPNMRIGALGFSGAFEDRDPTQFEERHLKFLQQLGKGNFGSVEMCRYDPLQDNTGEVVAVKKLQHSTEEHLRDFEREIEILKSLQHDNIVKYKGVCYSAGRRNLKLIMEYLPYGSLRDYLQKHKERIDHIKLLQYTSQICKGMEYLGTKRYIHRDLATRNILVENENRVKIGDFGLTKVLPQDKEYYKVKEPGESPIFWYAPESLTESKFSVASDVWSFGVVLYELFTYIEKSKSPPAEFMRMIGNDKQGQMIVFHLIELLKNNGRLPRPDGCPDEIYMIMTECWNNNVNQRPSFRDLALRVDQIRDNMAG

Structure (SMILES)	IC50 (JAK2) [nM]	activity against JAK2 (JAK2; result in words)	IC50 (SET-2 cells) [nM]
CCn1c(C(=O)N(C2CC2)C2CC2)cc2c3c(ncn3C)c(Nc3nc(CF)cs3)nc21 [Example 3, N,N-dicyclopropyl-6-ethyl-4-(4-(fluoromethyl)thiazol-2-ylamino)-1-methyl-1,6-dihydroimidazo[4,5-d]pyrrolo[2,3-b]pyridine-7-carboxamide]	1.5	–	10
CCn1c(C(=O)N(C2CC2)C2CC2)cc2c3c(ncn3C)c(Nc3nc(C(C)(C)C)cs3)nc21 [Example 4, 4-(4-tert-butylthiazol-2-ylamino)-N,N-dicyclopropyl-6-ethyl-1-methyl-1,6-dihydroimidazo[4,5-d]pyrrolo[2,3-b]pyridine-7-carboxamide]	30	–	2530
CCn1c(C(=O)N(C2CC2)C2CC2)cc2c3c(ncn3C)c(Nc3nc(C(=O)NC4CCS(=O)(=O)C4)cs3)nc21 (stereo not shown) [Example 15, N,N-dicyclopropyl-4-((4-((1,1-dioxidotetrahydro-3-thiophenyl)carbamoyl)-1,3-thiazol-2-yl)amino)-6-ethyl-1-methyl-1,6-dihydroimidazo[4,5-d]pyrrolo[2,3-b]pyridine-7-carboxamide]	1.52	–	490
CCn1c(C(=O)N(C2CC2)C2CC2)cc2c3c(ncn3C)c(Nc3nc(C(F)(F)F)c(C)s3)nc21 [Example 29, N,N-dicyclopropyl-6-ethyl-1-methyl-4-(5-methyl-4-(trifluoromethyl)thiazol-2-ylamino)-1,6-dihydroimidazo[4,5-d]pyrrolo[2,3-b]pyridine-7-carboxamide]	10	–	10000
CCn1c(C(=O)N(C2CC2)C2CC2)cc2c3c(ncn3C)c(Nc3nc(C)c(C(C)=O)s3)nc21 [Example 34, 4-(5-acetyl-4-methylthiazol-2-ylamino)-N,N-dicyclopropyl-6-ethyl-1-methyl-1,6-dihydroimidazo[4,5-d]pyrrolo[2,3-b]pyridine-7-carboxamide]	1.5	–	240
CCn1c(C(=O)N(C2CC2)C2CC2)cc2c3c(ncn3C)c(Nc3ncc(C#N)s3)nc21 [Example 38, 4-(5-cyanothiazol-2-ylamino)-N,N-dicyclopropyl-6-ethyl-1-methyl-1,6-dihydroimidazo[4,5-d]pyrrolo[2,3-b]pyridine-7-carboxamide]	40	–	60
CCNC(=O)c1nc(Nc2nc3c(cc(C(=O)N(C4CC4)C4CC4)n3CC)c3c2ncn3C)sc1C [Example 49, 2-(7-(dicyclopropylcarbamoyl)-6-ethyl-1-methyl-1,6-dihydroimidazo[4,5-d]pyrrolo[2,3-b]pyridine-4-ylamino)-N-ethyl-5-methylthiazole-4-carboxamide]	50	–	3930
CCn1c(C(=O)N(C2CC2)C2CC2)cc2c3c(ncn3C)c(Nc3cc(C)n(C4CCC4)n3)nc21 [Example 81, 4-(1-cyclobutyl-5-methyl-1H-pyrazol-3-ylamino)-N,N-dicyclopropyl-6-ethyl-1-methyl-1,6-dihydroimidazo[4,5-d]pyrrolo[2,3-b]pyridine-7-carboxamide]	15.2	–	339
CCn1nc(Nc2nc3c(cc(C(=O)N(C4CC4)C4CC4)n3CC)c3c2ncn3C)cc1C(=O)NCCNC(C)=O [Example 109, 4-((5-((2-acetamidoethyl)carbamoyl)-1-ethyl-1H-pyrazol-3-yl)amino)-N,N-dicyclopropyl-6-ethyl-1-methyl-1,6-dihydroimidazo[4,5-d]pyrrolo[2,3-b]pyridine-7-carboxamide]	1.52	–	4150
CCn1c(C(=O)N(C2CC2)C2CC2)cc2c3c(ncn3C)c(Nc3cc(CN4CCOCC4)n(C)n3)nc21 [Example 116, N,N-dicyclopropyl-6-ethyl-1-methyl-4-(1-methyl-5-(morpholinomethyl)-1H-pyrazol-3-ylamino)-1,6-dihydroimidazo[4,5-d]pyrrolo[2,3-b]pyridine-7-carboxamide]	1.49	–	170
CCn1c(C(=O)N(C2CC2)C2CC2)cc2c3c(ncn3C)c(Nc3nc(C)n(C)n3)nc21 [Example 125, N,N-dicyclopropyl-4-(1,5-dimethyl-1H-1,2,4-triazol-3-ylamino)-6-ethyl-1-methyl-1,6-dihydroimidazo[4,5-d]pyrrolo[2,3-b]pyridine-7-carboxamide]	50	–	1270
CCNC(=O)c1cc2c(nc(NC)c3ncn(C)c32)[nH]1 [Example No. A171, reference compound]	–	weak activity	–

Now from value to compound, other results behind:

IC50 (JAK2) [nM]	activity against JAK2 (JAK2; result in words)	Structure (SMILES)	IC50 (SET-2 cells) [nM]
0.637	–	CCn1c(C(=O)N(C2CC2)C2CC2)cc2c3c(ncn3C)c(Nc3nc4c(s3)CS(=O)(=O)CC4)nc21 [Example 33, 4-(5,5-dioxo-4,5,6,7-tetrahydro-5λ^6-thiopyrano[4,3-d]thiazol-2-ylamino)-6-ethyl-1-methyl-1,6-dihydro-1,3,5,6-tetraaza-as-indacene-7-carboxylic acid dicyclopropylamide]	10
0.536	–	CCn1c(C(=O)N(C2CC2)C2CC2)cc2c3c(ncn3C)c(Nc3nc4cc[nH]c(=O)c4s3)nc21 [Example 35, N,N-dicyclopropyl-6-ethyl-1-methyl-4-(4-oxo-4,5-dihydrothiazolo[5,4-c]pyridin-2-ylamino)-1,6-dihydroimidazo[4,5-d]pyrrolo[2,3-b]pyridine-7-carboxamide]	2850
1.47	–	CCn1c(C(=O)N(C2CC2)C2CC2)cc2c3c(ncn3C)c(Nc3nc(C)c(C(=O)NCCOC)s3)nc21 [Example 53, 2-(7-(dicyclopropylcarbamoyl)-6-ethyl-1-methyl-1,6-dihydroimidazo[4,5-d]pyrrolo[2,3-b]pyridin-4-ylamino)-N-(2-methoxyethyl)-4-methylthiazole-5-carboxamide]	100
0.748	–	CCn1c(C(=O)N(C2CC2)C2CC2)cc2c3c(ncn3C)c(Nc3nc(C)c(C(=O)N4CCC4)s3)nc21 [Example 55, 4-(5-(azetidine-1-carbonyl)-4-methylthiazol-2-ylamino)-N,N-dicyclopropyl-6-ethyl-1-methyl-1,6-dihydroimidazo[4,5-d]pyrrolo[2,3-b]pyridine-7-carboxamide]	4.3
0.751	–	CCn1c(C(=O)N(C2CC2)C2CC2)cc2c3c(ncn3C)c(Nc3nc(C)c(C(=O)NCC#N)s3)nc21 [Example 61, 4-((5-((cyanomethyl)carbamoyl)-4-methyl-1,3-thiazol-2-yl)amino)-N,N-dicyclopropyl-6-ethyl-1-methyl-1,6-dihydroimidazo[4,5-d]pyrrolo[2,3-b]pyridine-7-carboxamide]	–
0.733	–	CCn1c(C(=O)N(C2CC2)C2CC2)cc2c3c(ncn3C)c(Nc3nc(C)c(C(=O)N4CCS(=O)(=O)CC4)s3)nc21 [Example 70]	330
1	–	CCn1c(C(=O)N(C2CC2)C2CC2)cc2c3c(ncn3C)c(Nc3cc(C)n(C)n3)nc21 [Example 73, N,N-dicyclopropyl-4-(1,5-dimethyl-1H-pyrazol-3-ylamino)-6-ethyl-1-methyl-1,6-dihydroimidazo[4,5-d]pyrrolo[2,3-b]pyridine-7-carboxamide]	60
0.695	–	CCn1c(C(=O)N(C2CC2)C2CC2)cc2c3c(ncn3C)c(Nc3cnn(C)c3)nc21 [Example 98, N,N-dicyclopropyl-6-ethyl-1-methyl-4-(1-methyl-1H-pyrazol-4-ylamino)-1,6-dihydroimidazo[4,5-d]pyrrolo[2,3-b]pyridine-7-carboxamide]	7.37
0.743	–	CCn1nc(Nc2nc3c(cc(C(=O)N(C4CC4)C4CC4)n3CC)c3c2ncn3C)cc1C(=O)O [Example 101, 3-(7-(dicyclopropylcarbamoyl)-6-ethyl-1-methyl-1,6-dihydroimidazo[4,5-d]pyrrolo[2,3-b]pyridin-4-ylamino)-1-ethyl-1H-pyrazole-5-carboxylic acid]	10000
